Source: paper doi:10.1101/2024.08.19.608619, “Discovery of potent SARS-CoV-2 nsp3 macrodomain inhibitors uncovers lack of translation to cellular antiviral response” (bioRxiv, 2024)
Values after ≈ are worked out from the molar mass of the structure shown. Values joined by “and” are separate entries in the source; they are usually repeats but may differ in a detail not shown here. Equal entries are not always repeated. Where two headings read alike, the source gives them in different places.

Legend:
[1] = Hepatic microsomal stability, HLM; type: in vitro ADME, human; settings: In vitro human liver microsomal stability; for perc_remaining_no_cofactor: no cofactor
LogD = settings: pH 7.4
[2] = In vitro kinetic solubility; settings: In vitro kinetic solubility, ph 7.4
[3] = Hepatic microsomal stability, MLM; type: in vitro ADME
[4] = Permeability Papp (AB) MDR1/MDCKII; settings: In vitro MDR1-MDCKII permeability; for papp_a_to_b_mean: A to B; for perc_recovery_a_to_b_mean: recovery A to B
SARS-CoV-2 nsp3-mac1 [5] = target: T1, SARS-CoV-2 nsp3-mac1 (Severe acute respiratory syndrome coronavirus 2, UniProt P0DTD1); experiment: biochemical; parameters: SARS-CoV-2 nsp3 macrodomain TR-FRET single point, per cent inhibition, n=2
SARS-CoV-2 nsp3-mac1 [6] = target: T1, SARS-CoV-2 nsp3-mac1; experiment: biochemical; type: biochemical; settings: SARS-CoV-2 nsp3 macrodomain TR-FRET single point
[7] = In vitro mouse liver microsomal stability
[8] = In vitro mouse liver microsomal stability; no cofactor
[9] = In vitro mouse liver microsomal stability, no cofactor
[10] = read-out: perc_inhibition_mean, batch_name=ASAP-0000304-001
[11] = read-out: perc_inhibition_mean, batch_name=ASAP-0000422-001

SMILES | clint [1] | perc_remaining [1] | t_half [1] | perc_remaining_no_cofactor [1] | logd (LogD; In vitro LogD) | solubility_mean [2] | clint [3, 7] | perc_remaining [3, 7] | t_half [3, 7] | perc_remaining_no_cofactor [3, 8] | papp_a_to_b_mean ([4]; mean) | perc_recovery_a_to_b_mean ([4]; mean) | also measured
CC(C)[C@H](Nc1ncnc2[nH]c(-c3cnn(CC(N)=O)c3)cc12)c1ccc2c(c1)S(=O)(=O)CCC2 (racemic) [ASAP-0008679] | 116.0 µL/min/mg | 15.0% | 14.4 min | 95.0% | 1.9 | 341 µM (≈ 168 µg/mL) | 61.0 µL/min/mg | 37.0% | 27.4 min | 109.0% | 0.32 ×10⁻⁶ cm/s | 79.9% | 
CC(C)[C@H](Nc1ncnc2[nH]c(-c3cnn(C)c3C#N)cc12)c1ccc2c(c1)NC(=O)CO2 (racemic) [ASAP-0008576] | 100.0 µL/min/mg | 18.0% | 16.6 min | 93.0% | 4.1 | 69 µM (≈ 30.5 µg/mL) | 177.0 µL/min/mg | 6.0% | 9.4 min |  | 3.07 ×10⁻⁶ cm/s | 80.1% | perc_remaining_no_cofactor [3, 9]: 97.0%
CNC(=O)c1cc2c(N[C@@H](c3ccc4c(c3)S(=O)(=O)CCC4)C(C)C)ncnc2[nH]1 [ASAP-0008685] | 77.0 µL/min/mg | 25.0% | 21.7 min | 101.0% | 2.4 | 369 µM (≈ 158 µg/mL) | 46.0 µL/min/mg | 47.0% | 36.5 min | 100.0% | 0.46 ×10⁻⁶ cm/s | 104.0% | 
CC(C)[C@H](Nc1ncnc2[nH]c(-c3cnn(CC(N)=O)c3)cc12)c1ccc2c(n1)OCCO2 [ASAP-0012307] | 12.0 µL/min/mg | 85.0% | 134.5 min | 90.0% | 2.3 | 377 µM (≈ 169 µg/mL) | 5.0 µL/min/mg | 99.0% | 359.1 min |  |  |  | perc_remaining_no_cofactor [3, 9]: 110.0%; papp_a_to_b_mean ([4]; no inhibitor): 1.27 ×10⁻⁶ cm/s; perc_recovery_a_to_b_mean ([4]; no inhibitor): 100.0%
CC(C)[C@H](Nc1ncnc2[nH]c(-c3cnn(C)c3C#N)cc12)c1ccc2c(c1)OCCO2 [ASAP-0010980] | 706.0 µL/min/mg | 1.0% | 2.4 min | 103.0% | 3.3 | 15 µM (≈ 6.44 µg/mL) | 257.0 µL/min/mg | 2.0% | 6.5 min |  |  |  | perc_remaining_no_cofactor [3, 9]: 113.0%; papp_a_to_b_mean ([4]; no inhibitor): 5.56 ×10⁻⁶ cm/s; perc_recovery_a_to_b_mean ([4]; no inhibitor): 39.3%
CC(C)[C@H](Nc1ncnc2[nH]c(-c3cnn(C)c3C#N)cc12)c1ccc2c(c1)NC(=O)CO2 (single isomer, unassigned) [ASAP-0013256] | 52.0 µL/min/mg | 44.0% | 32.3 min | 109.0% | 3.4 | 19 µM (≈ 8.41 µg/mL) | 147.0 µL/min/mg | 10.0% | 11.3 min |  |  |  | perc_remaining_no_cofactor [3, 9]: 102.0%; papp_a_to_b_mean ([4]; no inhibitor): 2.35 ×10⁻⁶ cm/s; perc_recovery_a_to_b_mean ([4]; no inhibitor): 78.9%
CC(C)[C@@H](Nc1ncnc2[nH]c(-c3cnn(C)c3C#N)cc12)c1ccc2c(c1)S(=O)(=O)CCC2 [ASAP-0008651] | 490.0 µL/min/mg | 1.0% | 3.4 min | 94.0% | 3.6 | 34 µM (≈ 16.2 µg/mL) | 440.0 µL/min/mg | 0.0% | 3.8 min | 96.0% | 1.97 ×10⁻⁶ cm/s | 81.6% | 
CCNC(=O)c1cc2c(N[C@H](c3ccc4c(c3)S(=O)(=O)CCC4)C(C)C)ncnc2[nH]1 (racemic) [ASAP-0008711] | 108.0 µL/min/mg | 15.0% | 15.4 min | 98.0% | 2.8 | 336 µM (≈ 148 µg/mL) | 85.0 µL/min/mg | 21.0% | 19.5 min | 95.0% | 0.7 ×10⁻⁶ cm/s | 87.2% | 
CC(C)[C@H](CO)Nc1ncnc2[nH]ccc12 [ASAP-0000453] | 6.0 µL/min/mg | 119.0% | 289.0 min | 99.0% | 1.69 | ≥ 400 µM | 10.0 µL/min/mg | 90.0% | 171.1 min | 93.0% | 13.1 ×10⁻⁶ cm/s | 89.0% | 
CC(C)[C@@H](Nc1ncnc2[nH]c(-c3cnn(C)c3C#N)cc12)c1ccc2c(c1)OCCO2 [ASAP-0011033] | 47.0 µL/min/mg | 46.0% | 35.4 min | 101.0% | 3.4 | 20 µM (≈ 8.59 µg/mL) | 129.0 µL/min/mg | 13.0% | 13.0 min |  |  |  | perc_remaining_no_cofactor [3, 9]: 106.0%; papp_a_to_b_mean ([4]; no inhibitor): 5.11 ×10⁻⁶ cm/s; perc_recovery_a_to_b_mean ([4]; no inhibitor): 31.2%
CC(C)[C@H](Nc1ncnc2[nH]ccc12)c1ccc2c(c1)NC(=O)CO2 [ASAP-0008430] | 10.0 µL/min/mg | 86.0% | 160.3 min | 95.0% | 1.8 | 371 µM (≈ 125 µg/mL) | 37.0 µL/min/mg | 54.0% | 45.1 min | 89.0% | 3.4 ×10⁻⁶ cm/s | 90.0% | 
CC(C)[C@@H](Nc1ncnc2[nH]ccc12)c1ccc2c(c1)OCCO2 [ASAP-0008279] |  |  |  |  | 3.0 |  |  |  |  |  |  |  | 
O=C(O)C[C@H](NC(=O)c1ncnc2[nH]ccc12)c1ccc(Br)cc1 [ASAP-0000136] |  |  |  |  | 0.22 |  |  |  |  |  |  |  | 
CC(C)C(Nc1ncnc2[nH]ccc12)c1ccc2c(n1)OCCO2 (centres unmarked) [ASAP-0008270] |  |  |  |  |  |  |  |  |  |  |  |  | logd (LogD): 2.8
Cn1ncc(-c2cc3c(N[C@H](c4ccc5c(n4)OCCO5)C(C)(C)C)ncnc3[nH]2)c1C#N (racemic) [ASAP-0008645] | 70.0 µL/min/mg and 81.0 µL/min/mg | 30.0% and 27.0% | 23.9 min and 20.6 min | 91.0% and 108.0% |  | 25 µM and 24 µM | 188.0 µL/min/mg and 209.0 µL/min/mg | 5.0% and 4.0% | 8.9 min and 8.0 min | 101.0% | 9.87 ×10⁻⁶ cm/s and 13.5 ×10⁻⁶ cm/s | 73.4% and 58.4% | perc_remaining_no_cofactor [3, 9]: 106.0%
O=S(=O)(Nc1ncccn1)c1ccc2oc3ccccc3c2c1 [ASAP-0000097] |  |  |  |  |  |  |  |  |  |  |  |  | inhibition at 50 µM (SARS-CoV-2 nsp3-mac1 [5]; read-out: perc_inhibition_mean, batch_name=ASAP-0000097-001): -3%; perc_inhibition_mean (SARS-CoV-2 nsp3-mac1 [6]; concentration 50.0 uM): -3.004%
Cn1ncc2ncnc(NCc3ncccc3O)c21 [ASAP-0000119] |  |  |  |  |  |  |  |  |  |  |  |  | inhibition at 50 µM (SARS-CoV-2 nsp3-mac1 [5]; read-out: perc_inhibition_mean, batch_name=ASAP-0000119-001): -2.55%; perc_inhibition_mean (SARS-CoV-2 nsp3-mac1 [6]; concentration 50.0 uM): -2.547%
CC(C)OCCNC(=O)c1cc2c(=O)n3ccccc3nc2n1C [ASAP-0000071] |  |  |  |  |  |  |  |  |  |  |  |  | inhibition at 50 µM (SARS-CoV-2 nsp3-mac1 [5]; read-out: perc_inhibition_mean, batch_name=ASAP-0000071-001): 14%; perc_inhibition_mean (SARS-CoV-2 nsp3-mac1 [6]; concentration 50.0 uM): 14.037%
O=C(Nc1ccccc1)Nc1ccc(C(=O)NCc2ccnc(F)c2)cc1 [ASAP-0000304] |  |  |  |  |  |  |  |  |  |  |  |  | inhibition at 49.75 µM (SARS-CoV-2 nsp3-mac1 [5]; [10]): -0.36%; inhibition at 99.5 µM (SARS-CoV-2 nsp3-mac1 [5]; [10]): 4.92%; perc_inhibition_mean (SARS-CoV-2 nsp3-mac1 [6]; concentration 49.75 uM, n=2): -0.36%; perc_inhibition_mean (SARS-CoV-2 nsp3-mac1 [6]; concentration 99.5 uM, n=2): 4.92%
NC(=O)c1ccccc1NC(=O)c1ncnc2[nH]ccc12 [ASAP-0000044] |  |  |  |  |  |  |  |  |  |  |  |  | inhibition at 50 µM (SARS-CoV-2 nsp3-mac1 [5]; read-out: perc_inhibition_mean, batch_name=ASAP-0000044-001): -2.59%; perc_inhibition_mean (SARS-CoV-2 nsp3-mac1 [6]; concentration 50.0 uM): -2.586%
O=C(c1ccc(O)nc1)N1CCC(c2ccn3ncc(C(=O)N4CCCCC4)c3c2)CC1 [ASAP-0000422] |  |  |  |  |  |  |  |  |  |  |  |  | inhibition at 49.75 µM (SARS-CoV-2 nsp3-mac1 [5]; [11]): 11%; inhibition at 99.5 µM (SARS-CoV-2 nsp3-mac1 [5]; [11]): 26.5%; perc_inhibition_mean (SARS-CoV-2 nsp3-mac1 [6]; concentration 49.75 uM): 10.998%; perc_inhibition_mean (SARS-CoV-2 nsp3-mac1 [6]; concentration 99.5 uM): 26.485%
O=C(OCC(Br)=C1CCOCC1)c1ncnc2[nH]ccc12 [ASAP-0000039] |  |  |  |  |  |  |  |  |  |  |  |  | inhibition at 50 µM (SARS-CoV-2 nsp3-mac1 [5]; read-out: perc_inhibition_mean, batch_name=ASAP-0000039-001): -5.36%; perc_inhibition_mean (SARS-CoV-2 nsp3-mac1 [6]; concentration 50.0 uM): -5.359%
O=C1CN(c2ccc(Nc3ncnc4[nH]ccc34)cn2)CCN1 [ASAP-0000037] |  |  |  |  |  |  |  |  |  |  |  |  | inhibition at 50 µM (SARS-CoV-2 nsp3-mac1 [5]; read-out: perc_inhibition_mean, batch_name=ASAP-0000037-001): -16.8%; perc_inhibition_mean (SARS-CoV-2 nsp3-mac1 [6]; concentration 50.0 uM): -16.793%
